In US20180071280A1, “MODULATORS OF CELL DEATH PROCESSES” (URIFER LTD., priority 2015, published 2018):
Structures can show the parent of a compound that is named as a salt.

How the values were obtained:
[1] = test system: Hfb; test: Mitochondrial membrane potential (TMRE) in normal human cells; assay type: cell-based
Procedure: For microscopic and ELISA based analyses of cells MMP, Tetra-Methyl-Rhodamine-Ethyl ester (TMRE) incorporation assay was carried out according to the manufacturer's instructions (Abcam, USA).

[2] = biological target: FLT3 (FMS-like tyrosine kinase 3) (Homo sapiens, UniProt P36888); test: Kinase panel assay, FLT3; assay type: biochemical; settings: above threshold
Procedure: Kinase panel assays were performed using the FRET-based Z′-LYTE, Lantha Screen and Adapta enzymatic kinase assay systems (Life Technologies, Carlsbad, Calif.), which were carried out using the SelectScreen Kinase Profiling Service (Life Technologies). The standard reaction contained 2 μM peptide substrate, ATP at the optimal assay concentration, 50 mM HEPES (pH 7.5), 0.01% Brij-35, 10 mM MgCl2, 1 mM EGTA, and the tested kinase. Each kinase was checked for its activity in duplicate data points (n=2) and was assayed following the detailed procedures outlined in the SelectScreen service. Percent inhibition or ATP displacement (For Lantha screen) represent a ratio of phosphorylated/ATP bound product formed in the presence of the compound compared with phosphorylated/ATP bound product formed in reactions containing 1% DMSO.
Kinome technique was used for monitoring phosphorylation events and phosphorylation targets of 0260-Fer interaction, using peptide arrays for human targets and phosphorylation-specific antibodies. Construction of peptide arrays relied on information from phosphorylation databases. The following proteins were determined as significant above the threshold of 40% kinase activity inhibition or ATP displacement to the Kinase domain site.

[3] = test system: malignant cells (CC and MDA cells); test: Cellular ATP level (HPLC) in malignant cells; assay type: cell-based, human; settings: CC cells, high glucose
Procedure: Quantification of intracellular ATP was carried out using HPLC as previously described.
Cells were suspended in 400 μl cold 0.4M perchloric acid solution, incubated on ice for 15 min, centrifuged at 12,000×g, neutralized with 4M K2CO3 to pH 7.5, incubated for 15 min on ice and concentrated (10,000×g). Chromatographic analyses were performed using Hitachi Elite LaChrom system at 30° C. applying supernatants to SUPELCOSIL™ LC-18-S HPLC Column (5 μm particle size, L×I.D. 25 cm×2.1 mm), flow rate 0.2 mL/min under isocratic elution conditions (50 mM potassium phosphate, 100 mM triethylamine, pH 6.5 (adjusted with phosphoric acid)):Acetonitrile (98.5:1.5)). Each analysis cycle was set to 30 min, chromatographic flow was monitored at 260 nm and integrated using EZChrom Elite Software.

[4] = test system: Hfb cells; test: Glycolysis rate (secreted lactate) in Hfb cells; assay type: cell-based, human; settings: low or high glucose
Procedure: Cells were grown in MEM containing 1 gr/lit glucose or in DMEM with 4.5 gr/lit glucose. Secreted lactate levels were determined using Lactate Colorimetric Assay Kit II according to the manufacturer's protocol (Biovision, USA).

[5] = test system: SW620 CC xenografts; test: SW620 CC xenografts in nude mice; assay type: in vivo
Procedure: All animal experiments were performed according to the guidelines of the Institutional Animal Care and Use Committee of the Bar-Ilan University. Nude mice (Harlan, Israel) were transferred from ad libitum diet to a more strict diet 2 days before inoculation to lower blood glucose levels, and housed one per cage to ensure an even consumption of food. The diet was comprised of 3 g/mouse/day of standard chow, given at the same time every day. The food was consumed within an average time of 2 hours, consequently the mice were kept without food for the next 22 hours until the daily ration. The mice were kept on this diet throughout the experiment. Mice were inoculated with 1.5×10^6 SW620 CC cells and divided randomly into respective experimental groups. In brief, cells were harvested, counted under the microscope, concentrated by centrifugation (5 min at 500G) and re-suspended in Hank's balanced salt solution (Biological Industries, Israel). Before inoculation the cell suspension was mixed with Martial (BD biosciences, USA) in 1:1 ratio. Four days post-inoculation mice were randomized and placed in cages (n=4 per cage). […]
Mice were sacrificed at day 22 of the xenograft experiments, as described above. […] The serum was analyzed immediately using the Cobas 6000-501 chemistry analyzer (Roche Diagnostics, USA) according to the manufacturer's protocols for each assay.

[6] = test system: mice sperm cells; test: Sperm cell motility assay (CASA); assay type: cell-based; settings: 2 μM
Procedure: For isolation of spermatogenic cells, mice testes were removed from out-bred (ICR) mice and digested in Isolation Medium (DMEM with 2 mM glutamine, 1.5 mM sodium pyruvate, 10% fetal calf serum, 25 μg/ml ampicillin and 1× non-essential amino acids) with added 2 mg/ml collagenase (Sigma-Aldrich) for 5 min at 37° C., and washed twice. Extracellular DNA and proteins were removed with 1 unit/ml DNAse and 0.3 ml 0.5% trypsin at 37° C. for 5 min. Cells were filtered through a nylon mesh with 50 μm pores and incubated in Isolation Medium with 0260 or control for 24 h, and examined under the microscope. Mouse mature caudal spermatozoa were obtained by dissecting the cauda epididymis of male ICR mice and puncturing them in a dish containing 3 ml PBS to enable sperm release out of the epididymal tissue. The sperm suspension was filtered through a nylon mesh with 50 μm pores, centrifuged at 1000×g for 5 min and re-suspended in a buffer compatible with the experimental procedure.
Sperm cell motility was evaluated using the Computer-Aided Sperm Analysis (CASA). Samples (5 μl) were placed in standard count four chamber slide (Leja, Nieuw-Vennet, Netherlands) and analyzed by CASA device with IVOS software (version 12, Hamilton-Thorne Biosciences), acquiring up to ten sequels, 10 s long, for each sample, using parameters identifying mouse sperm motility. The proportion of hyper-activated ([…]) spermatozoa in each sample was determined using the SORT function of the CASA instrument. HAM was defined by curvilinear velocity (VCL)>90 μm/s, linearity (LIN) b20% and an amplitude of lateral head (ALH)>7 μm.

[7] = test system: Electron Transport Chain (ETC) complex I; test: ETC Complex I activity assay in SW620 cells; assay type: cell-based, human
Procedure: SW620 cells were treated with 0260 for 4-22 h and the Complex I activity was determined for each period on incubation using the Complex I Enzyme Activity Microplate Assay Kit (Colorimetric) according to the manufacturer's instructions (ab109721).

Sequence of FLT3 (FMS-like tyrosine kinase 3) (P36888 27-993): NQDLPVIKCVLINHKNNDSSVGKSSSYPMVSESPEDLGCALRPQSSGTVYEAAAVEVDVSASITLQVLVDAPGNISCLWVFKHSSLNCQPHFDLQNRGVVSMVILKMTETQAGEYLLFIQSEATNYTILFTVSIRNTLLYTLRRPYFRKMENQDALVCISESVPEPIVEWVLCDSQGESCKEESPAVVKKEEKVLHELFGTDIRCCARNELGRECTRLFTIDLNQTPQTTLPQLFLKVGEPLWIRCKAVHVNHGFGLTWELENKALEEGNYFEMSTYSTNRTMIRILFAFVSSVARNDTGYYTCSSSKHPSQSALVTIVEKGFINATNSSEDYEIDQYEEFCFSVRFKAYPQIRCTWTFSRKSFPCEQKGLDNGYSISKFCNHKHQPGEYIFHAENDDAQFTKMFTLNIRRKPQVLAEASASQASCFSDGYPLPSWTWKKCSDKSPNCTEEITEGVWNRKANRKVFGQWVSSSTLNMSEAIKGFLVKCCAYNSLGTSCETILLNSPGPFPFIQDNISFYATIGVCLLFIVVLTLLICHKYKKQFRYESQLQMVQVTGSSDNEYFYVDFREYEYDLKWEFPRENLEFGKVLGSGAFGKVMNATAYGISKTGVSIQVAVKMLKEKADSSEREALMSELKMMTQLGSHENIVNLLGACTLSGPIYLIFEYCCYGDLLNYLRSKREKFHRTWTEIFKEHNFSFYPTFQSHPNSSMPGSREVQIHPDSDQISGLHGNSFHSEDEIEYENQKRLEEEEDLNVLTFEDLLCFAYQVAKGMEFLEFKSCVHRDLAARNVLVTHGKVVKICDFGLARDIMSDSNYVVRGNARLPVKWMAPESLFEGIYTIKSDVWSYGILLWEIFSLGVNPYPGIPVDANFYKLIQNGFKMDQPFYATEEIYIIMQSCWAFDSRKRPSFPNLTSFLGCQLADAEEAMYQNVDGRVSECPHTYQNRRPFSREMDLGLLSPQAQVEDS

CC(C)c1ccc(-c2cn3nc(N4CCC(CN5CCN(C)CC5)CC4)sc3n2)cc1 [compound 0260, tartarate salt of 6-(4-isopropyl-phenyl)-2-{4-[(4-methyl-piperazin-1-yl)methyl]piperidin-1-yl}-imidazo [2,1-b][1,3,4]thiadiazole]
Mitochondrial Membrane Potential (MMP) depolarization [1]: absent
kinase activity inhibition or ATP displacement [2]: > 40%
effect on ATP levels under high glucose medium [3]: reducing its effect on ATP levels
elevation in the glycolytic rate [4]: not observed
tumor histopathology ([5]; SW620 derived tumors dissected at day 22, center and periphery): comprised mostly of dead necrotic and un-vascularized tissue
decrease in average tumor volume ([5]; after 22 days of treatment, IP twice a day, restricted diet): 10 fold
percentage of sperm cells exhibiting progressive motility ([6]; 5 min): significantly decreased
progressive motility ([6]; 30 min): practically reduced to zero
total motility ([6]; 30 min): practically reduced to zero
Complex I activity ([7]; SW620, 4 h post treatment): inhibited
Complex I activity (remaining) ([7]; SW620, 16 h): around 55%
Complex I activity (remaining) ([7]; SW620, 22 hours): ~35%
